The text below walks through data of ChEMBL document CHEMBL1125820, “Structure-activity relationship of mutagenic aromatic and heteroaromatic nitro compounds. Correlation with molecular orbital energies and hydrophobicity” (J Med Chem, 1991).

A short description of series [1]: Partition coefficient (logP). The settings on record: octanol/water.
The test system of series [2] is Salmonella typhimurium. The series is described as follows: Mutagenic activity in an Ames test on Salmonella Typhimurium TA98; Activity is log of revertants/nmol. Type of series: functional, Salmonella enterica subsp. enterica serovar Typhimurium. Details: scale not given here; call rule not given here. Background: The Ames test uses bacterial strains that need an amino acid and regain growth without it when mutated back.

Series [3] deals with Salmonella typhimurium. Description: Mutagenic activity in Salmonella Typhimurium TA98 using Ames test; Activity is log of revertants / nmol; a= inactive. The class given is functional, Salmonella enterica subsp. enterica serovar Typhimurium.

Take `O=[N+]([O-])c1cc2cccnc2c2ncccc12`: the logP (usually the decadic logarithm of the partition coefficient of the neutral form, usually between octanol and water) in series [1] amounted to 1.84. Further, the Activity in the series on Salmonella typhimurium [2] worked out at 0.59.

On to `O=[N+]([O-])c1ccc2c(c1)CCc1ccccc1-2`, for which the logP in series [1] turned out to be 4.53. Besides, the Activity with Salmonella typhimurium [2] was found to be 1.99.

With `O=C/C=C/c1ccc([N+](=O)[O-])o1`, the lipophilicity (logP) in series [1] came to 0.96. The compound further returned an Activity in the series with Salmonella typhimurium [2] of 1.97.

Consider `O=[N+]([O-])c1cccc2ncccc12`, for which the logP in series [1] stood at 1.86. In the series on Salmonella typhimurium [2], the Activity is on record as -0.96.

For the compound `O=[N+]([O-])c1ccc2[nH]ccc2c1`, the logP in series [1] was found to be 2.13. This compound also returned an Activity in the series on Salmonella typhimurium [2] of 0.57.

With `O=[N+]([O-])c1c(Cl)c(Cl)c2c(c1Cl)Oc1cc(Cl)c(Cl)cc1O2`, in series [1], the logP came out at 7.84. In the series with Salmonella typhimurium [2], the Activity was -0.33.

The compound `O=C(/C=C/c1ccc([N+](=O)[O-])o1)N/N=C/c1ccc([N+](=O)[O-])o1` showed a logP in series [1] of 2.79. The same compound yielded an Activity with Salmonella typhimurium [2] of 2.45.

Consider `Nc1ccc([N+](=O)[O-])cc1O`, for which the logP in series [1] amounted to 1.36. In the series with Salmonella typhimurium [2], the Activity is recorded as -2.4.

Regarding `O=[N+]([O-])c1ccc2ccc3cc4c(c5ccc1c2c35)CCCC4`, the logP in series [1] is 6.57. In the series on Salmonella typhimurium [2], this compound had an Activity of 0.9.

Take `O=[N+]([O-])c1c2c3c(ccc4cccc(c43)CC2)c2ccccc12`: the logP in series [1] is 6.16. The compound further yielded an Activity with Salmonella typhimurium [2] of 0.3.

As for `O=[N+]([O-])c1ccc2c(c1)Cc1cc(O)ccc1-2`, in series [1], the logP turned out to be 3.43. Also, the Activity in the series on Salmonella typhimurium [2] is on record as 1.68.

Regarding `CC(=O)Oc1ccc2c(c1)Cc1cc([N+](=O)[O-])ccc1-2`, the logP in series [1] was 3.46. Moreover, in the series on Salmonella typhimurium [2], the Activity was 1.86.

On to `Cc1c([N+](=O)[O-])ccc2ccccc12`, for which the logP in series [1] turned out to be 3.43. This compound returned an Activity in the series on Salmonella typhimurium [2] of -0.7.

`O=[N+]([O-])c1cccc2ccccc12` had a logP in series [1] of 3.19. The same compound showed an Activity in the series on Salmonella typhimurium [2] of -0.61.

With `O=[N+]([O-])c1c2ccccc2cc2ccccc12`, the lipophilicity (logP) in series [1] worked out at 4.78. In the series on Salmonella typhimurium [3], this compound had an Activity of -0.95.

For `O=[N+]([O-])c1cc2c3c(cc([N+](=O)[O-])cc3c1)-c1ccccc1-2`, in series [1], the logP came out at 4.44. The same compound returned an Activity in the series with Salmonella typhimurium [2] of 2.32.

As to `CN1Cc2cccc([N+](=O)[O-])c2N1`, the logP in series [1] stood at 1.77. In the series with Salmonella typhimurium [2], the Activity is recorded as 0.23.

In series [1], `O=[N+]([O-])c1ccc2c(c1)Oc1ccccc1O2` registered a logP of 4.73. The compound also yielded an Activity with Salmonella typhimurium [2] of 1.79.

Take `O=[N+]([O-])c1ccc2c3c(cccc13)C=C2`: in series [1], the log partition coefficient (logP) came to 3.36. The same compound yielded an Activity in the series on Salmonella typhimurium [2] of 1.91.

The compound `O=[N+]([O-])c1ccc2cc3ccccc3cc2c1` gave a logP in series [1] of 4.23. For the same compound, the Activity in the series on Salmonella typhimurium [2] was determined as 2.95.

`O=[N+]([O-])c1cc(O)c2ccc3cccc4ccc1c2c34` had a logP in series [1] of 4.66. Besides, the Activity in the series on Salmonella typhimurium [2] came to 3.87.

As to `O=[N+]([O-])C1=CC2Nc3cc([N+](=O)[O-])ccc3NC2C=C1` (stereo not drawn), the logP in series [1] was 2.29. The Activity with Salmonella typhimurium [2] is listed as 2.75.

In series [1], `O=[N+]([O-])c1ccc(F)c([N+](=O)[O-])c1` came in with a logP of 1.49. This compound also yielded an Activity with Salmonella typhimurium [2] of 1.2.

Compound `O=[N+]([O-])c1ccc(F)c(Cl)c1` yielded a logP in series [1] of 2.74. In addition, the Activity in the series on Salmonella typhimurium [2] is recorded as -1.21.

With `Nc1ccc2c(c1)Cc1cc([N+](=O)[O-])ccc1-2`, the logP in series [1] worked out at 3.06. Moreover, the Activity with Salmonella typhimurium [2] came out at 1.56.

For `N#Cc1ccc2c(c1)Cc1cc([N+](=O)[O-])ccc1-2`, the logP in series [1] was 3.4. Moreover, the Activity in the series with Salmonella typhimurium [2] was 2.51.

As to `O=[N+]([O-])c1ccc2oc3ccccc3c2c1`, the logP in series [1] came to 3.83. In the series on Salmonella typhimurium [2], this compound came in with an Activity of 1.64.

In series [1], `O=[N+]([O-])c1cc2c3c(ccc4cc([N+](=O)[O-])cc(c43)CC2)c1` displayed a lipophilicity (logP) of 4.73. The Activity in the series on Salmonella typhimurium [2] is given as 4.25.

As for `Cc1ccc2cccc([N+](=O)[O-])c2n1`, in series [1], the logP was 1.99. Also, in the series on Salmonella typhimurium [2], the Activity is on record as -2.7.

On to `O=[N+]([O-])c1cc2ccccc2c2ccc3ccccc3c12`, for which, in series [1], the logP was 5.41. In addition, the Activity in the series on Salmonella typhimurium [2] is reported as -0.22.

The compound `O=[N+]([O-])C1=Cc2c3ccc4ccccc4c3cc3cccc1c23` displayed a logP in series [1] of 5.07. In the series with Salmonella typhimurium [2], this compound gave an Activity of 0.86.

Turning to `O=[N+]([O-])c1cccc(Cl)c1Cl`, the log partition coefficient (logP) in series [1] came to 3.05. The Activity with Salmonella typhimurium [2] is given as -1.51.

With `O=C(/C=C/c1ccccc1)c1ccc([N+](=O)[O-])cc1`, in series [1], the logP worked out at 2.83. In the series with Salmonella typhimurium [2], this compound had an Activity of -1.15.

Regarding `O=[N+]([O-])c1ccc2ccc3c4c(cc5ccc1c2c53)C=CC(O)C4O` (stereo not drawn), the logP in series [1] was found to be 3.01. In the series on Salmonella typhimurium [2], this compound displayed an Activity of 2.8.

In series [1], `O=[N+]([O-])C1=Cc2cccc3c2c1cc1cc2ccccc2cc13` had a log partition coefficient (logP) of 5.07. The compound further returned an Activity with Salmonella typhimurium [2] of 0.92.

`O=[N+]([O-])c1ccc(F)cc1[N+](=O)[O-]` gave a logP in series [1] of 1.89. For the same compound, in the series on Salmonella typhimurium [2], the Activity is -1.84.

As for `O=[N+]([O-])c1ccc2c3c(cccc13)-c1ccccc1-2`, the logP in series [1] turned out to be 4.69. Also, the Activity in the series on Salmonella typhimurium [2] came to 3.67.

For the compound `O=[N+]([O-])c1ccc2c(c1)CC=C2`, in series [1], the logP is 2.74. The compound also gave an Activity in the series with Salmonella typhimurium [2] of 0.96.

Compound `O=[N+]([O-])c1ccc2ccc3c(O)ccc4ccc1c2c43` registered a logP in series [1] of 4.19. In the series with Salmonella typhimurium [2], this compound showed an Activity of 1.34.

Compound `O=[N+]([O-])c1cc2c3c(c([N+](=O)[O-])c([N+](=O)[O-])cc3c1)-c1ccccc1-2` gave a logP in series [1] of 4.18. This compound also yielded an Activity in the series on Salmonella typhimurium [2] of 3.16.

With `O=[N+]([O-])c1c(Cl)cc2c(c1Cl)Oc1cc(Cl)c(Cl)cc1O2`, the lipophilicity (logP) in series [1] came out at 7.13. The same compound showed an Activity in the series with Salmonella typhimurium [2] of -1.4.

For `O=[N+]([O-])c1ccc2c(c1)-c1ccc([N+](=O)[O-])c3cccc-2c13`, the logP in series [1] was 4.44. Besides, the Activity in the series with Salmonella typhimurium [2] amounted to 5.02.

The compound `O=[N+]([O-])c1nc2ccccc2[nH]1` returned a log partition coefficient (logP) in series [1] of 1.59. In the series on Salmonella typhimurium [2], the Activity was found to be 0.

`Nc1cccc(-c2cccc([N+](=O)[O-])c2)c1` showed a log partition coefficient (logP) in series [1] of 2.68. Further, the Activity in the series on Salmonella typhimurium [2] is recorded as -1.7.

`O=[N+]([O-])c1ccc2ccc3c4c(cc5ccc1c2c53)CCCC4`: the logP in series [1] is 6.57. For the same compound, in the series on Salmonella typhimurium [2], the Activity was found to be 0.3.

The compound `Cn1ncc2cccc([N+](=O)[O-])c21` showed a logP in series [1] of 1.77. The compound also registered an Activity in the series with Salmonella typhimurium [2] of -1.

In the case of `O=[N+]([O-])c1cc(Cl)ccc1Cl`, the lipophilicity (logP) in series [1] was found to be 2.9. The Activity in the series on Salmonella typhimurium [2] is listed as -1.54.

Turning to `Nc1ccc([N+](=O)[O-])cc1N`, the logP in series [1] amounted to 0.88. In the series on Salmonella typhimurium [2], the Activity stood at 0.63.

In series [1], `COc1ccc2c(c1)Cc1cc([N+](=O)[O-])ccc1-2` gave a log partition coefficient (logP) of 3.95. The Activity in the series with Salmonella typhimurium [2] is on record as 2.79.

Consider `O=[N+]([O-])c1ccc2c3c(c4cccc5ccc1c2c54)CCCC3`, for which the logP in series [1] is 6.26. In the series with Salmonella typhimurium [2], this compound had an Activity of 0.78.

With `O=[N+]([O-])c1ccc2ccc3cccc4ccc1c2c34` [1-NITROPYRENE], the logP in series [1] came to 4.69. In the series on Salmonella typhimurium [2], this compound yielded an Activity of 2.78.

In series [1], `COc1ccccc1[N+](=O)[O-]` [2-NITROANISOLE] came in with a logP of 1.73. In the series with Salmonella typhimurium [2], this compound came in with an Activity of -2.7.

In turn, `O=[N+]([O-])c1ccc2c(c1)Cc1ccccc1-2` [2-NITROFLUORENE] displayed a logP in series [1] of 3.37. For the same compound, the Activity in the series on Salmonella typhimurium [2] is reported as 1.43.

In series [1], `Nc1ccc(Cl)cc1[N+](=O)[O-]` [4-CHLORO-2-NITROANILINE] yielded a logP of 2.72. In the series with Salmonella typhimurium [2], this compound returned an Activity of -2.

`O=C1Nc2ccc([N+](=O)[O-])cc2C1=O` [5-NITROISATIN] registered a logP in series [1] of 0.47. The compound also had an Activity in the series on Salmonella typhimurium [2] of -0.94.

In series [1], `O=[N+]([O-])c1cccc2cn[nH]c12` [7-NITROINDAZOLE] registered a log partition coefficient (logP) of 1.75. In addition, the Activity in the series with Salmonella typhimurium [2] came out at 0.11.

`O=[N+]([O-])c1ccc(Cl)c([N+](=O)[O-])c1` [DINITROCHLOROBENZENE]: the logP in series [1] came to 2.17. The Activity in the series on Salmonella typhimurium [2] is recorded as 0.3.

Compound `O=C1NCCN1c1ncc([N+](=O)[O-])s1` [NIRIDAZOLE] returned a log partition coefficient (logP) in series [1] of 0.95. In addition, the Activity in the series with Salmonella typhimurium [2] was determined as 2.59.

In turn, `NC(=O)N/N=C/c1ccc([N+](=O)[O-])o1` [NITROFURAZONE] yielded a logP in series [1] of 0.23. The compound also had an Activity in the series with Salmonella typhimurium [2] of 1.02.
